According to article PMC8877008, “Synthesis and Structure–Activity Relationship Studies of Benzimidazole-4,7-dione-Based P2X3 Receptor Antagonists as Novel Anti-Nociceptive Agents” (Molecules, 2022):

Legend:
BBB-PAMPA permeability = assay type: in vitro ADME; conditions: UV/vis spectrophotometry
[1] = Metabolic stability in microsomal fraction, mouse; assay type: in vitro ADME
[2] = Metabolic stability in microsomal fraction, human; assay type: in vitro ADME; conditions: human microsomal fraction, read-out: Metabolic Stability (Microsomal Fr.) % remaining after 30 min
hP2X3R = molecular target: T1, hP2X3R (Homo sapiens, UniProt P56373); experiment: Calcium influx (Fluo-4) evoked by α,β-meATP in HEK293 cells stably expressing hP2X3R; assay type: cell-based; conditions: antagonistic activity; HEK293 cells expressing hP2X3R; agonist at EC70
T1 construct: expressed in transfected cells
T1 sequence (P56373 1-397): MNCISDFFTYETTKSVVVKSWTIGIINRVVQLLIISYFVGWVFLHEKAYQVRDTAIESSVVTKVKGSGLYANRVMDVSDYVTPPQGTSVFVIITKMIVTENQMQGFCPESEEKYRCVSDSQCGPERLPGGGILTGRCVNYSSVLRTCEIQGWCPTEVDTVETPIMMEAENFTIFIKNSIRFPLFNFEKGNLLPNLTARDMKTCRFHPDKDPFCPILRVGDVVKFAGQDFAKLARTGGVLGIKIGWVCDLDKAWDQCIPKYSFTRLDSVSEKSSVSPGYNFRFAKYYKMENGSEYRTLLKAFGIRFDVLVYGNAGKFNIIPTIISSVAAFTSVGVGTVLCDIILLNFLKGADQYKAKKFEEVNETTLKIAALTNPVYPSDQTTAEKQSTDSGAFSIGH
Procedure: For the evaluation of P2XR activities, a cell-based assay system was employed to measure the level of fluorescence emission, based on Fluo-4 dye, during Ca^2+ influx evoked by αβmeATP in HEK293 cells stably expressing hP2X2/3R and hP2X3R. The library containing 8364 representative compounds for the screening of antagonistic activity was provided by the Korea Chemical Bank. The antagonistic activities were evaluated in the presence of P2X3R agonist of the concentration for EC70 value (200–250 nM for hP2X3R and 1–4 μM for hP2X2/3R highly expressed cell lines), and AF353 was used as the positive control antagonist for comparison. For the first round of screening, a single concentration (25 μM) of each library compound was tested to identify initial hit compounds, which were subsequently validated using both concentrations of 25 and 10 μM. Using a cut-off threshold of higher than 50% antagonistic activity and after confirming dose-dependency, 12 main hit compounds were selected.
(§1) 3.4. Cell-Based Assay: Measurement of Calcium Influx by Fluorescence-Based Fluo-4 Dye Uptake in HEK293 Cells Expressing hP2X2/3 and hP2X3 Receptors
Human P2X3-expressing HEK293 cells were grown in DMEM supplemented with 10% fetal bovine serum and 1% antibiotic–antimycotic as a monolayer culture at 37 °C in a humidified atmosphere of 5% CO2. The 96-well black plates used in the experiments were prepared by coating them with 1× poly-D-lysine (A3890401, Thermo-Fisher Scientific Korea, Seoul, South Korea). An aliquot of 40 μL 1× poly-D-lysine was used to treat each of the wells in a flat orientation. After leaving the plates for at least 4 h to absorb the poly-D-lysine, the plates were allowed to dry for at least 6 h. The DMEM used in the culture of HEK293 cells was removed from the dish, followed by application of 3 mL 1× PBS for washing. Removal of 1× PBS was followed by application of 1 mL trypsin/EDTA, and the cells were collected by centrifugation at 1200 rpm for 2 min. The supernatant was removed, and 1 mL fresh DMEM added. The cells were resuspended in media and plates prepared with 4.8 × 10^4 cells/well in 56 μL/well. After 18 h of cell culture in the 96-well black plate, 56 μL of Fluo-4 dye (Fluo-4 Direct^TM Calcium Assay Kit, F10471, Invitrogen, Thermo-Fisher Scientific Korea, Seoul, South Korea) was added to each well, prepared according to the manufacturer’s protocol, and incubated for 50 min~1 h under culturing conditions. Then, 12.4 μL of the appropriate compound solution was added to each well, and the positive control was AF353 (A1612, Sigma Aldrich Korea, Seoul, South Korea) and the negative control was 5% DMSO. Plates were incubated at room temperature and sealed to avoid interference from light for 50 min~1 h. Flexstation 3 and its software provided by Molecular Devices was used for the measurement of fluorescence in real time of treatments using prepared α,β-meATP (M6517, Sigma Aldrich) solution to evoke calcium influx and increased cell membrane potential.
For the analysis of antagonistic activities, all data were calculated by Origin Pro 9.1 software provided by Originlab and the fitting of graphs was proceeded by the growth/sigmoidal and hill1 process within no weights for data selections. For the analysis of the behavioral assessments of pain models, all data are expressed as mean ± SEM. The dose–response data are presented as percentages of the maximum possible effect. Statistical significance was analyzed by independent t-test. The criterion for statistical significance was p < 0.05. The statistical analysis was performed using SPSS 25.0 software (IBM Corp., Armonk, NY, USA).

CYP 2D6 = CYP 2D6 (Homo sapiens, UniProt P10635); experiment: CYP450 inhibition 2D6; assay type: in vitro ADME; conditions: compound 10 μM
Sequence of CYP 2D6 (P10635 whole entry): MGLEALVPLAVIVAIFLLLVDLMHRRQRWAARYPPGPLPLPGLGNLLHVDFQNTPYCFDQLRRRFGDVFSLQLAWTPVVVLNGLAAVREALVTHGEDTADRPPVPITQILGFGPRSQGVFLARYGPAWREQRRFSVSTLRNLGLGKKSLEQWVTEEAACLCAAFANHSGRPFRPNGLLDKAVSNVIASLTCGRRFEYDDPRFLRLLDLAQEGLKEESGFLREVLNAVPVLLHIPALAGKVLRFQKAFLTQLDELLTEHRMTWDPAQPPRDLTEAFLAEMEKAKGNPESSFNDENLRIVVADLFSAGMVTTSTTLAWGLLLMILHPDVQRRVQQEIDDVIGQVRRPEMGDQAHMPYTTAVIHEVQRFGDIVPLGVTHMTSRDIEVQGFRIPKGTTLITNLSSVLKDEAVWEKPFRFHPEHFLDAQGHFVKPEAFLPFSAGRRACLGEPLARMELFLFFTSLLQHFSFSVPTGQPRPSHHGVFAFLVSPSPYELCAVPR

Solubility in DMSO/water = assay type: physicochemical; conditions: DMSO in water
hP2X2/3R = molecular target: T2, hP2X2/3R (Homo sapiens, UniProt P56373+Q9UBL9); experiment: Calcium influx (Fluo-4) evoked by α,β-meATP in HEK293 cells stably expressing hP2X2/3R; assay type: cell-based; conditions: antagonistic activity; HEK293 cells expressing hP2X2/3R; agonist at EC70
T2 construct: expressed in transfected cells
T2 sequence (P56373 1-397): T1 sequence (P56373 1-397)
T2 sequence (Q9UBL9 1-471): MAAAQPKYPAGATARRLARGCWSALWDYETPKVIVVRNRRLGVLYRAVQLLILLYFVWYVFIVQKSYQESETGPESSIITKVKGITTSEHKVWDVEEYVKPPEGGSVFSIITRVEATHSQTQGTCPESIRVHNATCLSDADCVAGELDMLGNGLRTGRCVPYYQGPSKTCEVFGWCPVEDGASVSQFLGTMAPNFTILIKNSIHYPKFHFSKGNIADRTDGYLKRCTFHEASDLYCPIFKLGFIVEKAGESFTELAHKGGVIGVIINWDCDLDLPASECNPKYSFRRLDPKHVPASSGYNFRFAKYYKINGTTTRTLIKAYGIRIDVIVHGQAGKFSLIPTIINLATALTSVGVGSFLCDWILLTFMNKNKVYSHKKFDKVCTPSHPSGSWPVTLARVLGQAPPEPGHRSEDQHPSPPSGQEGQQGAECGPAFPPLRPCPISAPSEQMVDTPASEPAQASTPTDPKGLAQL
Procedure: For the evaluation of P2XR activities, a cell-based assay system was employed to measure the level of fluorescence emission, based on Fluo-4 dye, during Ca^2+ influx evoked by αβmeATP in HEK293 cells stably expressing hP2X2/3R and hP2X3R. The library containing 8364 representative compounds for the screening of antagonistic activity was provided by the Korea Chemical Bank. The antagonistic activities were evaluated in the presence of P2X3R agonist of the concentration for EC70 value (200–250 nM for hP2X3R and 1–4 μM for hP2X2/3R highly expressed cell lines), and AF353 was used as the positive control antagonist for comparison. […]
as §1
Human P2X3-expressing HEK293 cells were grown in DMEM supplemented with 10% fetal bovine serum and 1% antibiotic–antimycotic as a monolayer culture at 37 °C in a humidified atmosphere of 5% CO2. […] Flexstation 3 and its software provided by Molecular Devices was used for the measurement of fluorescence in real time of treatments using prepared α,β-meATP (M6517, Sigma Aldrich) solution to evoke calcium influx and increased cell membrane potential. […]

- BBB-PAMPA logPe (BBB-PAMPA permeability): <−6.000 logPe
- remaining at 0.5 h ([1]; microsomal fraction, species not given, lowest of human, rat, mouse is mouse, read-out: Metabolic stability, % remaining after 30 min incubation (summary)): > 92%
- remaining at 0.5 h ([1]; mouse, mouse microsomal fraction, read-out: Metabolic Stability (Microsomal Fr.) % remaining after 30 min): 92.8%
- remaining at 0.5 h [2]: > 99%
- IC50 (hP2X3R): 0.375 ± 0.033 µM
- CYP450 inhibition 2D6 (CYP 2D6): 7.74%
- Solubility (Solubility in DMSO/water): soluble in 30% DMSO in water
- IC50 (hP2X2/3R): 9.1 µM
SMILES: O=C1C(NC2CCN(C(=O)c3ccc(F)c(F)c3)CC2)=C(Cl)C(=O)c2[nH]c(C(F)(F)F)nc21 [14h, 6-Chloro-5-((1-(3,4-difluorobenzoyl)piperidin-4-yl)amino)-2-(trifluoromethyl)-1H-benzo[d]imidazole-4,7-dione]
